Measured values reported in PubChem BioAssay (NCI).
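Interpolation was linear, between the two tested concentrations surrounding the appropriate level; five concentrations were tested over 48 hours in 96-well plates. TGI is the concentration that stops growth completely.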

How the values were obtained:
Test in all cases: NCI-60 cell line screen, 48 h
[1] = tested on: 786-0 renal
[2] = tested on: CCRF-CEM leukemia
[3] = tested on: EKVX NSCLC
[4] = tested on: HCC-2998 colon
[5] = tested on: HCT-15 colon
[6] = tested on: K-562 leukemia
[7] = tested on: KM20L2 colon
[8] = tested on: LOX IMVI melanoma
[9] = tested on: NCI-H460 lung
[10] = tested on: NCI-H522 lung
[11] = tested on: NCI/ADR-RES ovarian
[12] = tested on: OVCAR-5 ovarian
[13] = tested on: OVCAR-8 ovarian
[14] = tested on: SF-268 CNS
[15] = tested on: SF-295 CNS
[16] = tested on: SF-539 CNS
[17] = tested on: SK-MEL-2 melanoma
[18] = tested on: SK-MEL-5 melanoma
[19] = tested on: SNB-19 CNS
[20] = tested on: HL-60(TB) leukemia

| SMILES | TGI [1] | TGI [2] | TGI [3] | TGI [4] | TGI [5] | TGI [6] | TGI [7] | TGI [8] | TGI [9] | TGI [10] | TGI [11] | TGI [12] | TGI [13] | TGI [14] | TGI [15] | TGI [16] | TGI [17] | TGI [18] | TGI [19] | TGI [20] |
| --- | --- | --- | --- | --- | --- | --- | --- | --- | --- | --- | --- | --- | --- | --- | --- | --- | --- | --- | --- | --- |
| CN(C)c1ccc(/C=C/c2cc[n+](C)c3ccccc23)cc1 | 17 µM | > 61.9 µM | > 100 µM | 17 µM | > 100 µM | > 45.1 µM | 13.1 µM | 14.1 µM | 14.3 µM | 11.5 µM | > 100 µM | 24.9 µM | 10.1 µM | 21.5 µM | > 43.2 µM | 18.7 µM | 6.37 µM | 6.21 µM | 16.5 µM | – |
| CCOC(=O)CN1CCSC1=NC#N | – | > 100 µM | > 100 µM | > 100 µM | > 100 µM | > 100 µM | > 100 µM | > 37.6 µM | > 31.6 µM | > 100 µM | > 100 µM | > 100 µM | > 100 µM | > 100 µM | > 42.7 µM | > 100 µM | > 100 µM | > 100 µM | > 100 µM | > 100 µM |
| O=C(Nc1ccc([N+](=O)[O-])cc1)C(=O)C(C(=O)c1ccccc1F)C1OC(=O)c2ccccc21 (stereo unspecified) | – | 58.4 µM | > 100 µM | 41.4 µM | > 100 µM | > 100 µM | > 100 µM | 60.7 µM | > 100 µM | 41.6 µM | – | > 100 µM | > 100 µM | > 100 µM | > 100 µM | 56 µM | 71.6 µM | > 100 µM | > 100 µM | 66.1 µM |
| CC(C)=CCC/C(C)=C/Cc1c(O)ccc2c1[nH]c1cc(O)c(C)cc12 | > 25 µM | > 25 µM | – | > 25 µM | > 25 µM | > 25 µM | > 25 µM | > 25 µM | > 25 µM | > 25 µM | – | > 25 µM | > 25 µM | > 25 µM | – | 23.8 µM | > 25 µM | > 25 µM | > 25 µM | > 25 µM |
| O=C(O)c1cc2c(s1)C(=O)c1sccc1C2=O | 18.1 µM | 33.1 µM | 30.5 µM | 33.6 µM | 11.9 µM | 15.2 µM | 35.3 µM | 3.04 µM | 33 µM | 8.58 µM | 18.5 µM | 23.4 µM | 14.6 µM | 16.4 µM | 5.25 µM | 3.85 µM | 6.03 µM | 3.32 µM | 17.1 µM | 19 µM |
| CC1=NN(C(=O)c2ccc(Cl)cc2)C(=O)/C1=C/c1cccc([N+](=O)[O-])c1 | > 100 µM | > 100 µM | > 100 µM | > 100 µM | > 100 µM | > 100 µM | > 100 µM | > 100 µM | > 100 µM | > 100 µM | – | > 100 µM | > 100 µM | > 100 µM | > 100 µM | > 100 µM | > 100 µM | > 100 µM | > 100 µM | > 100 µM |
| COC1CC(n2cnc3c(N)ncnc32)OC1CO (stereo unspecified) | > 100 µM | > 100 µM | – | > 100 µM | > 100 µM | > 100 µM | > 100 µM | – | > 100 µM | > 100 µM | – | > 100 µM | > 100 µM | > 100 µM | > 100 µM | > 100 µM | > 100 µM | > 100 µM | > 100 µM | > 100 µM |
| CC(=O)O[C@]12CCC[C@H]1C1(O)C(O)CCC[C@H]12 (stereo partly specified) | > 100 µM | > 100 µM | > 100 µM | – | > 100 µM | > 100 µM | > 100 µM | > 100 µM | > 100 µM | > 100 µM | – | – | > 100 µM | > 100 µM | > 100 µM | – | > 100 µM | > 100 µM | > 100 µM | > 100 µM |
| CC(CCc1ccc2c(c1)c(=N)c1ccc(N)cc1n2O)CC(C)(C)C (stereo unspecified) | 2.82 µM | 2.69 µM | 3.04 µM | – | 17.9 µM | 3.13 µM | 2.74 µM | 3.07 µM | – | – | – | 2.93 µM | – | 4.23 µM | 7.29 µM | – | 3.31 µM | 3.01 µM | – | 3.42 µM |
| CC(=O)Nc1ccc(N2C(=O)/C(=C\c3cccc(Oc4ccccc4)c3)SC2c2ccccc2)cc1 (stereo unspecified) | > 100 µM | 41.1 µM | > 100 µM | > 100 µM | > 100 µM | > 100 µM | – | 34.3 µM | > 100 µM | 58.4 µM | > 100 µM | > 100 µM | 34.8 µM | > 100 µM | > 100 µM | 33.4 µM | > 100 µM | 68.6 µM | 48.5 µM | > 100 µM |
| C=C(N=[N+]=[N-])c1cn(C2CC(O)C(CO)O2)c(=O)[nH]c1=O (stereo unspecified) | > 100 µM | > 100 µM | > 100 µM | > 100 µM | > 100 µM | > 100 µM | > 100 µM | > 100 µM | > 100 µM | > 100 µM | – | > 100 µM | > 100 µM | – | > 100 µM | > 100 µM | > 100 µM | > 100 µM | > 100 µM | > 100 µM |
| Cn1c(=O)nc2n(-c3ccc(Cl)cc3Cl)c3ccccc3nc-2c1=O | – | – | 16.9 µM | 14.5 µM | 15.4 µM | 22.6 µM | 5.8 µM | – | – | – | – | 49 µM | 14.1 µM | 76 µM | 10.6 µM | 19.3 µM | 17.4 µM | 3.36 µM | 26.5 µM | 27.8 µM |
| O=C1C(N=Nc2ccc(-c3nc4ccccc4o3)cc2)NC(=S)N1c1ccccc1 (stereo unspecified) | > 100 µM | 0.679 µM | > 100 µM | > 100 µM | > 100 µM | > 100 µM | – | > 100 µM | > 100 µM | > 100 µM | > 100 µM | > 100 µM | > 100 µM | > 100 µM | > 100 µM | > 100 µM | > 100 µM | > 100 µM | > 100 µM | 0.742 µM |
| C=CCc1ccc(O)c(-c2cc(C3Oc4c(-c5cc(CC=C)ccc5O)cc(O)cc4[C@@H]3CO)ccc2O)c1 (stereo partly specified) | > 100 µM | 43.7 µM | > 100 µM | 68.7 µM | 29.3 µM | 34.1 µM | 60.3 µM | 32.3 µM | > 100 µM | 38.7 µM | – | > 100 µM | > 100 µM | 82.5 µM | > 100 µM | 56.3 µM | 45.9 µM | 65 µM | 78.7 µM | 38.5 µM |
| COC(=O)[C@@]12OC[C@]34C([C@@H](O)C1O)[C@@]1(C)CC(=O)C(O)=C(C)C1C[C@H]3OC(=O)[C@H](OC(=O)CC(C)C(F)(F)F)[C@H]42 (stereo partly specified) | 0.708 µM | – | 0.999 µM | 0.0599 µM | 1.77 µM | – | 0.172 µM | – | 0.0554 µM | 0.088 µM | – | 1.18 µM | 0.491 µM | 0.644 µM | 0.191 µM | 0.067 µM | 0.362 µM | 0.0731 µM | 0.108 µM | 0.0175 µM |
| CCc1cc2c(cc1CCCC(=O)O)CC1(Cc3ccc(C(=O)O)cc3C1)C2 (stereo unspecified) | > 100 µM | > 100 µM | > 100 µM | > 100 µM | > 100 µM | > 100 µM | – | > 100 µM | > 100 µM | > 100 µM | > 100 µM | > 100 µM | > 100 µM | > 100 µM | > 100 µM | > 100 µM | > 100 µM | > 100 µM | > 100 µM | > 100 µM |
| Cc1cc(NS(=O)(=O)c2ccc(Nc3c4ccccc4nc4ccc(C(=O)Nc5ccc(S(=O)(=O)N=C(N)N)cc5)cc34)cc2)no1 | > 100 µM | > 100 µM | > 100 µM | > 100 µM | > 100 µM | > 100 µM | – | > 100 µM | > 100 µM | > 100 µM | > 100 µM | > 100 µM | > 100 µM | > 100 µM | > 100 µM | > 100 µM | > 100 µM | > 100 µM | > 100 µM | > 100 µM |
| C=C(Br)CN(CC(=C)Br)C(C)=O | > 100 µM | > 100 µM | > 100 µM | > 100 µM | > 100 µM | > 100 µM | – | > 100 µM | > 100 µM | > 100 µM | > 100 µM | > 100 µM | > 100 µM | > 100 µM | > 100 µM | > 100 µM | > 100 µM | > 100 µM | > 100 µM | > 100 µM |
| [O-]c1on[n+]2c1c(Nc1ccc(Cl)cc1)nc1ccccc12 | > 100 µM | > 100 µM | > 100 µM | > 100 µM | – | > 100 µM | > 100 µM | > 100 µM | > 100 µM | > 100 µM | – | > 100 µM | > 100 µM | > 100 µM | > 100 µM | > 100 µM | – | > 100 µM | > 100 µM | > 100 µM |
| Clc1ncnc2c1nc(C#Cc1ccccc1)n2Cc1ccccc1 | > 100 µM | > 100 µM | 29.3 µM | 27 µM | 36.6 µM | > 100 µM | – | 28.3 µM | > 100 µM | 36.7 µM | > 100 µM | > 100 µM | 53.9 µM | > 100 µM | > 100 µM | 83.8 µM | 98.4 µM | > 100 µM | > 100 µM | > 100 µM |
